Reference: ChEMBL document CHEMBL3228010, “Potential antitumor agents. 29. Quantitative structure-activity relationships for the antileukemic bisquaternary ammonium heterocycles” (J Med Chem, 1979)

Columns and labels:
L1210 [1] = assay: Antitumor activity against mouse L1210 cells […] in ip dosed C3H X DBA2 F1 hybrid mouse on day 0 and dosed once daily on days 1 to 5 assessed as increase in life span relative to control; assay type: functional
L1210 [2] = assay: Antitumor activity against mouse L1210 cells […] in ip dosed C3H X DBA2 F1 hybrid mouse on day 0 and dosed at LD10 level once daily on days 1 to 5 assessed as increase in life span relative to control; assay type: functional
Mus musculus = assay: Toxicity in ip dosed C3H X DBA2 F1 hybrid mouse […] with mouse L1210 cells on day 0 and dosed once daily on days 1 to 5 measured after 50 days; assay type: organism-based; details: in vivo, 1200 h
[3] = Lipophilic-hydrophilic balance, Rm of the compound by partition chromatography; assay type: physicochemical

Row | SMILES | D40 (L1210 [1]) [mg/kg] | log(ILSmax) (L1210 [2]) | LD10 (Mus musculus) [mg/kg] | Rm [3]
1 | CC[n+]1cccc(-c2ccc(NC(=O)c3ccc(C(=O)Nc4ccc(-c5ccc(-c6ccc(-c7ccc[n+](CC)c7)cc6)cc5)cc4)cc3)cc2)c1.Cc1ccc(S(=O)(=O)[O-])cc1.Cc1ccc(S(=O)(=O)[O-])cc1 | 5.6 | 2.2 | 43 | -0.44
2 | CCC[n+]1ccc(Nc2ccc(NC(=O)/C=C/c3ccc(/C=C/C(=O)Nc4ccc(Nc5cc[n+](CCC)cc5)cc4)cc3)cc2)cc1.[Br-].[Br-] | 13 | 1.85 | 25 | 0.46
3 | CC[n+]1ccc(Nc2ccc(NC(=O)/C=C/c3ccc(C(=O)Nc4ccc(Nc5cc[n+](CC)cc5)cc4)cc3)cc2)cc1.Cc1ccc(S(=O)(=O)[O-])cc1.Cc1ccc(S(=O)(=O)[O-])cc1 | 1.6 | 2.2 | 8 | -0.03
4 | C[n+]1ccc(Nc2ccc(NC(=O)c3ccc(Nc4cc[n+](C)c5ccccc45)cc3N)cc2)cc1.[I-].[I-] | 1.1 | 2.18 | 29 | 0.24
5 | Cc1cc(Nc2ccc(C(=O)Nc3ccc(Nc4cc[n+](C)cc4)cc3)c(N)c2)c2cc(N)ccc2[n+]1C.[I-].[I-] | 8.4 | 2.2 | 110 | 0.16
6 | CC[n+]1cccc(NC(=O)c2ccc(NC(=O)c3ccc(C(=O)Nc4ccc(C(=O)Nc5ccc[n+](CC)c5)cc4)c(Cl)c3)cc2)c1.Cc1ccc(S(=O)(=O)[O-])cc1.Cc1ccc(S(=O)(=O)[O-])cc1 | 22 | 1.7 | 29 | 0.42
7 | CC[n+]1cccc(NC(=O)c2ccc(NC(=O)/C=C/c3ccc(C(=O)Nc4ccc(C(=O)Nc5ccc[n+](CC)c5)cc4)cc3)cc2)c1.Cc1ccc(S(=O)(=O)[O-])cc1.Cc1ccc(S(=O)(=O)[O-])cc1 | 22 | 1.88 | 55 | -0.58
8 | CC[n+]1c(C)cc(Nc2ccc(NC(=O)c3ccc(C(=O)Nc4ccc(Nc5cc(C)[n+](CC)c(N)n5)cc4)cc3)cc2)nc1N.Cc1ccc(S(=O)(=O)[O-])cc1.Cc1ccc(S(=O)(=O)[O-])cc1 | 69 | 2.09 | 200 | -0.4
9 | C[n+]1ccc(Nc2ccc(NC(=O)c3ccc(C(=O)Nc4ccc(C(=O)Nc5ccc[n+](C)c5)cc4)cc3)cc2)cc1.[I-].[I-] | 0.5 | 2.12 | 4.5 | -0.12
10 | CC[n+]1cccc2cc(NC(=O)c3ccc(C(=O)Nc4ccc(NC(=O)c5ccc6c(ccc[n+]6CC)c5)cc4)cc3)ccc21.Cc1ccc(S(=O)(=O)[O-])cc1.Cc1ccc(S(=O)(=O)[O-])cc1 | 35 | 1.9 | 50 | -0.35
11 | CCC[n+]1cccc(NC(=O)c2ccc(NC(=O)c3ccc(C(=O)Nc4ccc5c(ccc[n+]5CCC)c4)cc3)cc2)c1.Cc1ccc(S(=O)(=O)[O-])cc1.Cc1ccc(S(=O)(=O)[O-])cc1 | 10.2 | 2.17 | 20 | 0.44
12 | CCC[n+]1cccc(NC(=O)c2ccc(NC(=O)c3ccc(C(=O)Nc4ccc(C(=O)Nc5ccc[n+](CCC)c5)c(OC)c4)cc3)cc2OC)c1.Cc1ccc(S(=O)(=O)[O-])cc1.Cc1ccc(S(=O)(=O)[O-])cc1 | 22 | 1.79 | 37 | 0.7
13 | CCC[n+]1ccc(Nc2ccc(NC(=O)c3ccc(C(=O)Nc4ccc(Nc5cc[n+](CCC)cc5)cc4)cc3)cc2)cc1.Cc1ccc(S(=O)(=O)[O-])cc1.Cc1ccc(S(=O)(=O)[O-])cc1 | 0.6 | 1.99 | 4.1 | 0.81
14 | CCC[n+]1ccc(-c2ccc(-c3ccc(-c4ccc(NC(=O)c5ccc(C(=O)Nc6ccc(-c7ccc(-c8ccc(-c9cc[n+](CCC)cc9)cc8)cc7)cc6)cc5)cc4)cc3)cc2)cc1.Cc1ccc(S(=O)(=O)[O-])cc1.Cc1ccc(S(=O)(=O)[O-])cc1 | 4.6 | 2.03 | 10 | 0.46
15 | CCCC[n+]1cccc2cc(NC(=O)c3ccc(-c4ccc(-c5ccc(-c6ccc(C(=O)Nc7ccc8c(ccc[n+]8CCCC)c7)cc6)cc5)cc4)cc3)ccc21.Cc1ccc(S(=O)(=O)[O-])cc1.Cc1ccc(S(=O)(=O)[O-])cc1 | 15 | 1.73 | 57 | 0.74
16 | CC[n+]1cccc(-c2ccc(NC(=O)/C=C/c3ccc(C(=O)Nc4ccc(-c5ccc(-c6ccc(-c7ccc[n+](CC)c7)cc6)cc5)cc4)cc3)cc2)c1.Cc1ccc(S(=O)(=O)[O-])cc1.Cc1ccc(S(=O)(=O)[O-])cc1 | 5.2 | 2.25 | 60 | -0.3
17 | CCC[n+]1cccc(NC(=O)c2ccc(NC(=O)c3ccc(C(=O)Nc4ccc(C(=O)Nc5ccc[n+](CCC)c5)c(N)c4)cc3)cc2N)c1.Cc1ccc(S(=O)(=O)[O-])cc1.Cc1ccc(S(=O)(=O)[O-])cc1 | 5 | 2.02 | 30 | -0.38
18 | CC[n+]1ccc(Nc2ccc(NC(=O)/C=C/c3ccc(/C=C/C(=O)Nc4ccc(Nc5cc[n+](CC)cc5)cc4)cc3)cc2)cc1.Cc1ccc(S(=O)(=O)[O-])cc1.Cc1ccc(S(=O)(=O)[O-])cc1 | 9 | 1.88 | 32 | -0.05
19 | CCCCC[n+]1cccc2cc(NC(=O)c3ccc(C(=O)Nc4ccc5c(ccc[n+]5CCCCC)c4)cc3)ccc21.Cc1ccc(S(=O)(=O)[O-])cc1.Cc1ccc(S(=O)(=O)[O-])cc1 | 55 | 1.62 | 57 | 0.92
20 | C[n+]1cccc(NC(=O)c2ccc(NC(=O)c3ccc(C(=O)Nc4ccc(C(=O)Nc5ccc[n+](C)c5)cc4)cc3)cc2)c1.[I-].[I-] | 7.5 | 2.02 | 17 | -0.12
21 | CC[n+]1ccc(Nc2ccc(NC(=O)/C=C/c3ccc(C(=O)Nc4ccc(Nc5cc[n+](CC)cc5)c(N)c4)cc3)cc2N)cc1.[Br-].[Br-] | 1.4 | 2.3 | 7.5 | 0.35
22 | CC[n+]1cccc(NC(=O)c2ccc(NC(=O)c3ccc(C(=O)Nc4ccc(C(=O)Nc5ccc[n+](CC)c5)cc4)c(N)c3)cc2)c1.Cc1ccc(S(=O)(=O)[O-])cc1.Cc1ccc(S(=O)(=O)[O-])cc1 | 2.4 | 2.13 | 14 | -0.15
23 | CCC[n+]1cccc2cc(NC(=O)c3ccc(C(=O)Nc4ccc5c(ccc[n+]5CCC)c4)nc3)ccc21.Cc1ccc(S(=O)(=O)[O-])cc1.Cc1ccc(S(=O)(=O)[O-])cc1 | 14 | 1.51 | 16 | 0.05
